The NIST ThermoML archive (doi:10.1016/j.fluid.2014.08.018)

Conditions: Liquid, Vibrating tube method

CCC[n+]1ccccc1C.O=S(=O)([N-]S(=O)(=O)C(F)(F)F)C(F)(F)F
Conditions	mass density [kg/m3]
283.15 K, 100 kPa	1478.5
283.15 K, 2500 kPa	1480.5
283.15 K, 5000 kPa	1482.1
283.15 K, 7500 kPa	1483.7
283.15 K, 10000 kPa	1485.4
283.15 K, 15000 kPa	1488.6
283.15 K, 20000 kPa	1491.5
283.15 K, 25000 kPa	1494.5
283.15 K, 30000 kPa	1497.3
283.15 K, 35000 kPa	1500.1
283.15 K, 45000 kPa	1505.5
283.15 K, 55000 kPa	1510.5
283.15 K, 65000 kPa	1515.3
288.15 K, 100 kPa	1473.7
288.15 K, 2500 kPa	1475.7
288.15 K, 5000 kPa	1477.3
288.15 K, 7500 kPa	1479
288.15 K, 10000 kPa	1480.6
288.15 K, 15000 kPa	1483.7
288.15 K, 20000 kPa	1486.8
288.15 K, 25000 kPa	1489.9
288.15 K, 30000 kPa	1492.7
288.15 K, 35000 kPa	1495.6
288.15 K, 45000 kPa	1500.9
288.15 K, 55000 kPa	1506
288.15 K, 65000 kPa	1510.9
293.15 K, 100 kPa	1469
293.15 K, 2500 kPa	1470.9
293.15 K, 5000 kPa	1472.6
293.15 K, 7500 kPa	1474.3
293.15 K, 10000 kPa	1475.9
293.15 K, 15000 kPa	1479.2
293.15 K, 20000 kPa	1482.3
293.15 K, 25000 kPa	1485.3
293.15 K, 30000 kPa	1488.3
293.15 K, 35000 kPa	1491.1
293.15 K, 45000 kPa	1496.6
293.15 K, 55000 kPa	1501.8
293.15 K, 65000 kPa	1506.7
298.15 K, 100 kPa	1464.2
298.15 K, 2500 kPa	1466.1
298.15 K, 5000 kPa	1467.8
298.15 K, 7500 kPa	1469.6
298.15 K, 10000 kPa	1471.2
298.15 K, 15000 kPa	1474.5
298.15 K, 20000 kPa	1477.7
298.15 K, 25000 kPa	1480.8
298.15 K, 30000 kPa	1483.8
298.15 K, 35000 kPa	1486.6
298.15 K, 45000 kPa	1492.2
298.15 K, 55000 kPa	1497.4
298.15 K, 65000 kPa	1502.5
303.15 K, 100 kPa	1459.5
303.15 K, 2500 kPa	1461.5
303.15 K, 5000 kPa	1463.2
303.15 K, 7500 kPa	1465
303.15 K, 10000 kPa	1466.6
303.15 K, 15000 kPa	1470
303.15 K, 20000 kPa	1473.2
303.15 K, 25000 kPa	1476.4
303.15 K, 30000 kPa	1479.5
303.15 K, 35000 kPa	1482.4
303.15 K, 45000 kPa	1488
303.15 K, 55000 kPa	1493.3
303.15 K, 65000 kPa	1498.4
308.15 K, 100 kPa	1454.8
308.15 K, 2500 kPa	1456.8
308.15 K, 5000 kPa	1458.5
308.15 K, 7500 kPa	1460.3
308.15 K, 10000 kPa	1462
308.15 K, 15000 kPa	1465.4
308.15 K, 20000 kPa	1468.7
308.15 K, 25000 kPa	1471.9
308.15 K, 30000 kPa	1475
308.15 K, 35000 kPa	1478
308.15 K, 45000 kPa	1483.7
308.15 K, 55000 kPa	1489.1
308.15 K, 65000 kPa	1494.2
313.15 K, 100 kPa	1450
313.15 K, 2500 kPa	1452.1
313.15 K, 5000 kPa	1453.9
313.15 K, 7500 kPa	1455.8
313.15 K, 10000 kPa	1457.5
313.15 K, 15000 kPa	1461
313.15 K, 20000 kPa	1464.3
313.15 K, 25000 kPa	1467.5
313.15 K, 30000 kPa	1470.7
313.15 K, 35000 kPa	1473.7
313.15 K, 45000 kPa	1479.5
313.15 K, 55000 kPa	1485
313.15 K, 65000 kPa	1490.2
318.15 K, 100 kPa	1445.4
318.15 K, 2500 kPa	1447.4
318.15 K, 5000 kPa	1449.3
318.15 K, 7500 kPa	1451.1
318.15 K, 10000 kPa	1452.9
318.15 K, 15000 kPa	1456.4
318.15 K, 20000 kPa	1459.9
318.15 K, 25000 kPa	1463.1
318.15 K, 30000 kPa	1466.4
318.15 K, 35000 kPa	1469.4
318.15 K, 45000 kPa	1475.3
318.15 K, 55000 kPa	1480.8
318.15 K, 65000 kPa	1486.1
323.15 K, 100 kPa	1440.7
323.15 K, 2500 kPa	1442.8
323.15 K, 5000 kPa	1444.7
323.15 K, 7500 kPa	1446.7
323.15 K, 10000 kPa	1448.5
323.15 K, 15000 kPa	1452
323.15 K, 20000 kPa	1455.5
323.15 K, 25000 kPa	1458.7
323.15 K, 30000 kPa	1462
323.15 K, 35000 kPa	1465.2
323.15 K, 45000 kPa	1471.2
323.15 K, 55000 kPa	1476.9
323.15 K, 65000 kPa	1482.1
328.15 K, 100 kPa	1436.1
328.15 K, 2500 kPa	1438.3
328.15 K, 5000 kPa	1440.2
328.15 K, 7500 kPa	1442.1
328.15 K, 10000 kPa	1443.9
328.15 K, 15000 kPa	1447.5
328.15 K, 20000 kPa	1451
328.15 K, 25000 kPa	1454.5
328.15 K, 30000 kPa	1457.8
328.15 K, 35000 kPa	1460.9
328.15 K, 45000 kPa	1467.1
328.15 K, 55000 kPa	1472.7
328.15 K, 65000 kPa	1478.1
333.15 K, 100 kPa	1431.4
333.15 K, 2500 kPa	1433.6
333.15 K, 5000 kPa	1435.5
333.15 K, 7500 kPa	1437.5
333.15 K, 10000 kPa	1439.4
333.15 K, 15000 kPa	1443.1
333.15 K, 20000 kPa	1446.6
333.15 K, 25000 kPa	1450.1
333.15 K, 30000 kPa	1453.4
333.15 K, 35000 kPa	1456.7
333.15 K, 45000 kPa	1462.8
333.15 K, 55000 kPa	1468.6
333.15 K, 65000 kPa	1474.2
